Results: PubChem BioAssay (NCI)
Where “and” joins values, the source holds several entries; their conditions need not be identical. Identical values can stand only once.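 Protocol summary: plate cells (96-well), add compound at 5 concentrations, incubate 48 h, interpolate endpoints linearly. GI50 = concentration required for 50% inhibition of growth. Definition used: TGI = concentration required for complete inhibition of growth.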

How the values were obtained:
Test in all cases: NCI tumour cell line growth inhibition, 48 h
[1] = system: A549 NSCLC
[2] = system: CAKI-1 renal
[3] = system: HCC-2998 colon
[4] = system: KM12 colon
[5] = system: MALME-3M melanoma
[6] = system: NCI-H522 lung
[7] = system: NCI/ADR-RES ovarian
[8] = system: RPMI-8226 leukemia
[9] = system: SK-MEL-28 melanoma
[10] = system: T-47D breast

SMILES	GI50 [1] [µM]	TGI [1] [µM]	GI50 [2] [µM]	TGI [2]	GI50 [3] [µM]	TGI [3] [µM]	GI50 [4] [µM]	TGI [4] [µM]	GI50 [5] [µM]	TGI [5]	GI50 [6] [µM]	TGI [6]	GI50 [7] [µM]	TGI [7] [µM]	GI50 [8] [µM]	GI50 [9] [µM]	TGI [9]	GI50 [10] [µM]	TGI [10] [µM]	TGI [8]
Oc1ccccc1/C=N\NC(=S)Nc1ccc(F)cc1	2.33	> 100	1.57	> 24.3 µM	3.28	28.5	0.799	45	1.2	8.35 µM	2.16	> 49.4 µM	0.443	> 37.8	1.34	2	> 100 µM	3.34	60.1	–
Cc1cnc(C(=O)Nc2nc3ccc(S(=O)(=O)Nc4ccc(C(C)(C)C)cc4)cc3[nH]2)cn1	0.652	9.14	0.544	16.4 µM	1.46	10.7	0.349	11	0.59	14.5 µM	0.356	8.9 µM	0.37	3.57	0.47	1.17	14 µM	0.592	20.8	12.4 µM
CNC(=O)c1sc(-n2cnc3cc(OC)c(OC)cc32)cc1OCc1ccccc1C(F)(F)F	> 25	> 25	> 25	> 25 µM	> 25	> 25	> 25	> 25	> 25	> 25 µM	> 25	> 25 µM	14.9	> 25	> 25	> 25	> 25 µM	19.9	> 25	> 25 µM
N#Cc1ccc2c(-c3ccnc(NC4CC4)n3)c(-c3ccc(F)cc3)nn2c1	> 25	> 25	14.6	> 25 µM	> 25	> 25	> 25	> 25	> 25	> 25 µM	> 25	> 25 µM	> 25	> 25	> 25	> 25	> 25 µM	> 25	> 25	> 25 µM
CC1=C(C(=S)Nc2ccc(Cl)c(C(=O)OC(C)C)c2)SCCO1	–	84.1	–	48.5 µM	–	31.2	–	33.5	–	36.9 µM	–	44.3 µM	–	43.2	–	–	35.4 µM	–	51.7	63.9 µM
CCCCCn1sc(=O)n(Cc2ccc(CNC(=O)C(C)c3ccc(CC(C)C)cc3)cc2)c1=O (configuration not stated)	1.65	4.26	0.562	1.92 µM	1.87	3.42	1.59	3.3	1.43	2.8 µM	0.162	2.11 µM	1.65	5.54	0.353	1.43	2.75 µM	1.6	4.05	2.1 µM
C=C1C(C)C2C(Cc3ccccc3)NC(=O)C23C(OC(C)=O)C=CC(C)(O)C(=O)C(C)C/C=C/C3C1O (configuration not stated)	0.241	> 500	0.05	1.12 µM and 1.66 µM	> 500	> 500	163	> 500	61.7	> 96.7 µM and 489 µM	–	27.3 µM and 36.4 µM	> 500	> 500	3.9	22.2	57.7 µM and 153 µM	5.14	> 357	65.5 µM and > 500 µM
O=C(/C=C/c1ccco1)Nc1ncc(Cc2cc(Cl)ccc2Cl)s1	0.108	> 100	0.05	> 100 µM	0.208	> 100	0.0419	> 100	0.0769	> 100 µM	0.0364	–	0.0327	0.37	0.0634	2.13	> 100 µM	0.255	> 100	> 100 µM
COc1cc2c(c3oc4c(O)cccc4c(=O)c13)CC(C(C)(O)CCl)O2 (configuration not stated)	–	13.6	–	7.68 µM	–	8.35	–	4.56	–	8.12 µM	–	5.94 µM	–	11.9	–	–	3.74 µM	–	13.5	0.655 µM
CSc1ccc(-c2cn3ccsc3n2)cc1	12.9	> 100	24.9	> 100 µM	20.9	> 100	24.4	> 100	22.1	> 72.6 µM	11.1	> 89.5 µM	26.4	> 100	9.2	27	> 100 µM	8.53	> 100	> 100 µM
COc1ccc(/C(=C(\c2ccccc2)[N+](=O)[O-])c2ccc(OCCN3CCCC3)cc2)cc1	4.68	17.3	2.68	9.87 µM	4.16	15.5	2.16	12.4	1.57	3.43 µM	2.46	9.62 µM	8.41	24.2	2.53	1.77	3.38 µM	1.06	15.2	10.6 µM
